According to patent US11267824B2, “Inhibitors of indoleamine 2,3-dioxygenase and/or tryptophan 2,3-dioxygenase” (IDORSIA PHARMACEUTICALS LTD, priority 2017, dated 2022):

Tests used:
[1] = molecular target: Recombinant human TDO comprising amino acids 19-407 (Homo sapiens (Human), UniProt P48775); assay: TDO2 enzymatic assay (TDO inhibitory activity); format: biochemical; conditions: 15 nM enzyme, 200 μM L-tryptophan, pH7, 30 min pre-incubation, NFK quantified by LCMS; mean values if measured multiple times; read-out: hTDO activity (IC50 in nM)
Summary of the method: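 His-tagged enzyme (15 nM, E. coli-expressed) in pH 7 phosphate buffer with ascorbate, catalase, BSA, Tween 20, 0.6% DMSO; 30 min RT pre-incubation with compound (10 μM–0.5 nM), then 200 μM L-tryptophan for 30 min RT. N′-formylkynurenine quantified by LCMS against deuterated tryptophan; IC50 by four-parameter fit, duplicates.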

[2] = molecular target: Recombinant full-length human IDO1 (Homo sapiens (Human), UniProt P14902); assay: IDO1 enzymatic assay (IDO inhibitory activity); format: biochemical; conditions: 2 nM enzyme, 5 μM L-tryptophan, pH6.5, 30 min pre-incubation, NFK quantified by LCMS; mean values if measured multiple times; read-out: hIDO activity (IC50 in nM)
Summary of the method: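 N-His-tagged enzyme from E. coli at 2 nM in 37.5 mM phosphate pH6.5 with ascorbate, methylene blue, catalase; compounds 10 μM–0.5 nM, 0.6% DMSO, pre-incubated 30 min RT, then 5 μM L-tryptophan for 30 min RT. NFK quantified by LCMS against d5-tryptophan; IC50 from duplicate four-parameter fit, means where repeated.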

Recombinant full-length human IDO1, sequence (P14902 whole entry): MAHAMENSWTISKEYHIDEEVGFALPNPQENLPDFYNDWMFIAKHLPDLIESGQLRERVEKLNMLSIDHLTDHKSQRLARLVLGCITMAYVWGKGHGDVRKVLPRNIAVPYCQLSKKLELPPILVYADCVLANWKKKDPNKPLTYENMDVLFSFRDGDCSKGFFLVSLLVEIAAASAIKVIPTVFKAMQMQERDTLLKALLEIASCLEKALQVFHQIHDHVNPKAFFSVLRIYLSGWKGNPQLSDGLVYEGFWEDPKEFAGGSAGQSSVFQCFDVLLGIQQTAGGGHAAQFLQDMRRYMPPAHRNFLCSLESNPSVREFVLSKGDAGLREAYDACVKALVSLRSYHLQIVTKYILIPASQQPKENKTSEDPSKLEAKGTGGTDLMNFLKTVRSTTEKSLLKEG
Recombinant human TDO comprising amino acids 19-407, sequence (P48775 19-406 limits assumed): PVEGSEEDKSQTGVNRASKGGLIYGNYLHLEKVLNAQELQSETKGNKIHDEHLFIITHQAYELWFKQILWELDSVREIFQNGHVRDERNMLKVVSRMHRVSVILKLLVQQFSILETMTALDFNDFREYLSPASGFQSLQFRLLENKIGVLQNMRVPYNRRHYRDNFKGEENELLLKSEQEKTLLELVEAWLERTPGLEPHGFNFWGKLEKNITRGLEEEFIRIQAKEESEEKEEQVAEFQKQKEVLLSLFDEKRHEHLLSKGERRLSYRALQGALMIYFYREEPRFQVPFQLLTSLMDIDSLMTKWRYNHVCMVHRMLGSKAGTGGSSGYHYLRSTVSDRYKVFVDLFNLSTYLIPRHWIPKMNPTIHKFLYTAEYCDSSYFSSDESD

SMILES | IC50 [1] | IC50 [2]
CC1(C(O)c2c(C(F)(F)F)sc3cncn23)CCCC1 (racemic) [Example 137, rac-(1-Methyl-cyclopentyl)-(2-trifluoromethyl-imidazo[5,1-b]thiazol-3-yl)-methanol] | 54.7 nM | 16.3 nM
OC(CC1CCC(C(F)F)CC1)c1c(C2CC2)sc2cncn12 (racemic) [Example 138, rac-1-(2-Cyclopropyl-imidazo[5,1-b]thiazol-3-yl)-2-(4-difluoromethyl-cyclohexyl)-ethanol] | 467 nM | 24.3 nM
Cc1sc2cncn2c1C(O)C1(C)CCCC1 (racemic) [Example 140, rac-(1-Methyl-cyclopentyl)-(2-methyl-imidazo[5,1-b]thiazol-3-yl)-methanol] | 19.9 nM | 30 nM
CCC1CCC(CC(O)c2c(C3CC3)sc3cncn23)CC1 (racemic) [Example 142, rac-1-(2-Cyclopropyl-imidazo[5,1-b]thiazol-3-yl)-2-(4-ethyl-cyclohexyl)-ethanol] | 2000 nM | 85.8 nM
CCCC1CCC(CC(O)c2c(C3CC3)sc3cncn23)CC1 (racemic) [Example 150, rac-1-(2-Cyclopropyl-imidazo[5,1-b]thiazol-3-yl)-2-(4-propyl-cyclohexy-etethanol] | 3230 nM | 687 nM
OC1CCC(C(O)c2c(C3CC3)sc3cncn23)CC1 (racemic) [Example 151, rac-4-[(2-Cyclopropyl-imidazo[5,1-b]thiazol-3-yl)-hydroxy-methyl]-cyclohexanol] | 2640 nM | 102 nM
OC1CCC(CC(O)c2c(C3CC3)sc3cncn23)CC1 (racemic) [Example 152, rac-4-[2-(2-Cyclopropyl-imidazo[5,1-b]thiazol-3-yl)-2-hydroxy-ethyl]-cyclohexanol] | 1130 nM | 18.4 nM
Cc1cc(-c2sc3cncn3c2C(O)C2CCCCC2)cs1 (racemic) [Example 153, rac-Cyclohexyl-[2-(5-methyl-thiophen-3-yl)-imidazo[5,1-b]thiazol-3-yl]-methanol] | 854 nM | 766 nM
OC(c1c(Cc2ccccc2)sc2cncn12)C1CCCCC1 (racemic) [Example 154, rac-(2-Benzyl-imidazo[5,1-b]thiazol-3-yl)-cyclohexyl-methanol] | 4270 nM | 7110 nM
OC(CC1CCCCC1)c1c(C2CC(F)(F)C2)sc2cncn12 (racemic) [Example 155, rac-2-Cyclohexyl-1-[2-(3,3-difluoro-cyclobutyl)-imidazo[5,1-b]thiazol-3-yl]-ethanol] | 1910 nM | 485 nM
OC(c1c(C2CC(F)(F)C2)sc2cncn12)C1CCCCC1 (racemic) [Example 156, rac-Cyclohexyl-[2-(3,3-difluoro-cyclobutyl)-imidazo[5,1-b]thiazol-3-yl]-methanol] | 1780 nM | 1070 nM
COCc1sc2cncn2c1C(O)C1CCCCC1 (racemic) [Example 157, rac-Cyclohexyl-(2-methoxymethyl-imidazo[5,1-b]thiazol-3-yl)-methanol] | 327 nM | 744 nM
Cc1sc2cncn2c1C(O)C#Cc1ccccc1 (racemic) [Example 158, rac-1-(2-Methyl-imidazo[5,1-b]thiazol-3-yl)-3-phenyl-prop-2-yn-1-ol] | > 10200 nM | 459 nM
CCNC1CCC(CC(O)c2c(C3CC3)sc3cncn23)CC1 (racemic) [Example 160, rac-1-(2-Cyclopropyl-imidazo[5,1-b]thiazol-3-yl)-2-(4-ethylamino-cyclohexyl)-ethanol] | > 10200 nM | 2370 nM
CC1(C)CCC(C(O)c2c(C(F)(F)F)sc3cncn23)CC1 (racemic) [Example 161, rac-(4,4-Dimethyl-cyclohexyl)-(2-trifluoromethyl-imidazo[5,1-b]thiazol-3-yl)-methanol] | 2770 nM | 58.3 nM
OC(c1c(C2CC2)sc2cncn12)C1CCCCCC1 (racemic) [Example 165, rac-Cycloheptyl-(2-cyclopropyl-imidazo[5,1-b]thiazol-3-yl)-methanol] | 382 nM | 14.2 nM
CC1(C(O)c2c(C3CC3)sc3cncn23)CCCCCC1 (racemic) [Example 166, rac-(2-Cyclopropyl-imidazo[5,1-b]thiazol-3-yl)-(1-methyl-cycloheptyl)-methanol] | 310 nM | 32.1 nM
Cc1sc2cncn2c1C(O)C1CCN(c2ccccc2)CC1 (racemic) [Example 169, rac-(2-Methyl-imidazo[5,1-b]thiazol-3-yl)-(1-phenyl-piperidin-4-yl)-methanol] | 3960 nM | 537 nM

Other lines, results leading:

IC50 [1] | IC50 [2] | SMILES
765 nM | 587 nM | OC(c1cccc(C(F)(F)F)c1)c1c(C2CC2)sc2cncn12 (racemic) [Example 143, rac-(2-Cyclopropyl-imidazo[5,1-b]thiazol-3-yl)-(3-trifluoromethyl-phenyl)-methanol]
475 nM | 32.8 nM | OC(c1ccc(F)cc1)c1c(C2CC2)sc2cncn12 (racemic) [Example 144, rac-(2-Cyclopropyl-imidazo[5,1-b]thiazol-3-yl)-(4-fluoro-phenyl)-methanol]
449 nM | 33.1 nM | OC(c1cccc(F)c1)c1c(C2CC2)sc2cncn12 (racemic) [Example 145, rac-(2-Cyclopropyl-imidazo[5,1-b]thiazol-3-yl)-(3-fluoro-phenyl)-methanol]
1090 nM | 63.9 nM | OC(c1ccc(Cl)cc1)c1c(C2CC2)sc2cncn12 (racemic) [Example 146, rac-(4-Chloro-phenyl)-(2-cyclopropyl-imidazo[5,1-b]thiazol-3-yl)-methanol]
6800 nM | 1110 nM | COc1ccccc1C(O)c1c(C2CC2)sc2cncn12 (racemic) [Example 147, rac-(2-Cyclopropyl-imidazo[5,1-b]thiazol-3-yl)-(2-methoxy-phenyl)-methanol]
2530 nM | 1160 nM | Cc1ccccc1C(O)c1c(C2CC2)sc2cncn12 (racemic) [Example 148, rac-(2-Cyclopropyl-imidazo[5,1-b]thiazol-3-yl)-o-tolyl-methanol]
1820 nM | 65.1 nM | OC(c1cccc(Cl)c1)c1c(C2CC2)sc2cncn12 (racemic) [Example 149, rac-(3-Chloro-phenyl)-(2-cyclopropyl-imidazo[5,1-b]thiazol-3-yl)-methanol]
2700 nM | 305 nM | OC(c1ccc(C(F)(F)F)cc1)c1c(C2CC2)sc2cncn12 (racemic) [Example 159, rac-(2-Cyclopropyl-imidazo[5,1-b]thiazol-3-yl)-(4-trifluoromethyl-phenyl)-methanol]
1000 nM | 561 nM | Cc1sc2cncn2c1C(O)c1ccccc1 (racemic) [Example 162, rac-(2-Methyl-imidazo[5,1-b]thiazol-3-yl)-phenyl-methanol]
1290 nM | 56.7 nM | OC(c1ccccc1F)c1c(C2CC2)sc2cncn12 (racemic) [Example 163, rac-(2-Cyclopropyl-imidazo[5,1-b]thiazol-3-yl)-(2-fluoro-phenyl)-methanol]
3020 nM | 1120 nM | OC(c1ccccc1Cl)c1c(C2CC2)sc2cncn12 (racemic) [Example 164, rac-(2-Chloro-phenyl)-(2-cyclopropyl-imidazo[5,1-b]thiazol-3-yl)-methanol]
